For two molecules, MIC results are on record in ChEMBL document CHEMBL1154551, “Microbial transformation of benzosampangine” (2000).

Values after ≈ are worked out from the molar mass of the structure shown.

For orientation: MIC means the lowest concentration that inhibits growth of the organism.

Type in all cases: functional
The subject of one assay is Cryptococcus neoformans. The experiment in a line: Antimicrobial activity against Cryptococcus neoformans.
The next assay concerns Aspergillus fumigatus. Nature of the assay: Antimicrobial activity against Aspergillus fumigatus.
A further assay relates to Candida albicans. The experiment in a line: Antimicrobial activity against Candida albicans.

The molecule `C[C@@H]1[C@H](O)[C@@H](C)/C=C/C=C/C=C/C=C/C=C/C=C/C=C/[C@H](O[C@@H]2O[C@H](C)[C@@H](O)[C@H](N)[C@@H]2O)C[C@@H]2O[C@](O)(C[C@@H](O)C[C@@H](O)[C@H](O)CC[C@@H](O)C[C@@H](O)CC(=O)O[C@H]1C)C[C@H](O)[C@H]2C(=O)O` [AMPHOTERICIN B] showed an MIC against Cryptococcus neoformans of 0.39 µg/mL (≈ 0.422 µM).

Consider `O=C1c2ccccc2-c2nccc3c2c1nc1ccccc13` [BENZOSAMPANGINE], for which the MIC in the assay on Aspergillus fumigatus was found to be 0.39 µg/mL (≈ 1.38 µM); in the assay on Cryptococcus neoformans, 1.56 µg/mL (≈ 5.53 µM); against Candida albicans, 0.39 µg/mL (≈ 1.38 µM).
